# Target: T1, Solute carrier organic anion transporter family member 1A1 (Rattus norvegicus, UniProt P46720)
# T1 sequence (P46720 whole entry): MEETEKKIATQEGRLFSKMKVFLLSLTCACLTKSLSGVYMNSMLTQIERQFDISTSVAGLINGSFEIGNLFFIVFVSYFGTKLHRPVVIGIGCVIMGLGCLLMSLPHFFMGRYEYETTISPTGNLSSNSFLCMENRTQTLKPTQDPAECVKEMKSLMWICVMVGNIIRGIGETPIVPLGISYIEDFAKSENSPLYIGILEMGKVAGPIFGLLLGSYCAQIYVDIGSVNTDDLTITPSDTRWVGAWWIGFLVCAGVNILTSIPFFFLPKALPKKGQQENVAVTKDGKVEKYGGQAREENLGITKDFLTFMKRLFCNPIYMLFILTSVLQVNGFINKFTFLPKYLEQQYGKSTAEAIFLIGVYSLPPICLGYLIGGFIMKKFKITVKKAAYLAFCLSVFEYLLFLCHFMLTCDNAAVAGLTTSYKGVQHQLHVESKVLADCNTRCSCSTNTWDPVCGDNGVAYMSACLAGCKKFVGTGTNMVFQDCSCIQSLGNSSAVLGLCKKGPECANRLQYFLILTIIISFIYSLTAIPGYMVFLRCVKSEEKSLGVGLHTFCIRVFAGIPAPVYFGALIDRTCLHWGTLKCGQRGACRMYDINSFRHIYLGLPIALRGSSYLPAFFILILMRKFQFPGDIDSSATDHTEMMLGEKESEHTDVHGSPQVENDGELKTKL
# Test: TP_TRANSPORTER: uptake in Oatp1-expressing Saccharomyces cerevisiae secretory vesicle
# Type: functional, subcellular
row,SMILES,Activity
1,C[C@]12CC[C@@H]3c4ccc(OS(=O)(=O)O)cc4CC[C@H]3[C@@H]1CCC2=O [ESTRONE SULFURIC ACID],is not a substrate [-]
2,CCCCC/C=C\C\C=C/C=C/C=C/[C@@H](SC[C@@H](NC(=O)CC[C@H](N)C(=O)O)C(=O)NCC(=O)O)[C@@H](O)CCCC(=O)O [LEUKOTRIEN C4],is not a substrate [-]

# Reference: ChEMBL document CHEMBL2074352, “N-glycosylation controls functional activity of Oatp1, an organic anion transporter” (Am J Physiol Gastrointest Liver Physiol, 2003)
